Tests used:
[1] = tested on: 430 kinds of kinases; test: Kinase panel assay conducted by Eurofins; type: biochemical
Method: A total of 430 kinds of kinases were treated with 1 μM of LDD3959 through a kinase panel assay conducted by Eurofins to examine each activity.
The ATP concentration used in this experiment was 10 μM.

[2] = tested on: ACHN cells; test: Expression of cell proliferation inhibition-related and angiogenesis inhibition-related proteins, western blot; type: cell-based; settings: various concentrations, 48 hours
Method: LDD3959 treatment at various concentrations was performed on ACHN cells, using a serum-free culture medium, and a reaction was performed at 37° C. in the presence of 5% CO2 for 2 hours. The culture medium was replaced with a culture medium containing 10% FBS, and a reaction was performed for 48 hours. The culture medium was removed, and PBS washing was performed. With the use of a solution obtained by adding a protease inhibitor cocktail and a phosphatase inhibitor cocktail to RIPA buffer (25 mM Tris*HCl pH 7.6, 150 mM NaCl, 1% NP-40, 1% sodium deoxycholate, and 0.1% SDS) was used to prepare whole cell lysates.
The proteins were quantified by Bicinchoninic acid (BCA) protein assay. The proteins were resolved by SDS-PAGE and transcribed into a polyvinylidene difluoride (PVDF) membrane. The membrane was then blocked with 5% BSA for 1 hour at room temperature, allowed to react with a labeled antibody overnight at 4° C., washed in PBS-T for 30 minutes at room temperature, and allowed to react with a horseradish peroxidase (HRP)-bound secondary antibody for 2 hours at room temperature. Finally, the membrane was washed in PBS-T for […] at room temperature and developed with enhanced chemiluminescence.

[3] = target: T1, guinea pig liver-originated transglutaminase 2 (Cavia cutleri, UniProt P08587); test: In vitro transglutaminase 2 assay (1), [1,4-14C] putrescine incorporation into succinylated casein; type: biochemical
T1 construct: 1 mU of guinea pig liver-originated transglutaminase 2 (Sigma, St. Louis, MO, USA); purchased Sigma; host or cells: guinea pig liver
T1 sequence (P08587 1-690): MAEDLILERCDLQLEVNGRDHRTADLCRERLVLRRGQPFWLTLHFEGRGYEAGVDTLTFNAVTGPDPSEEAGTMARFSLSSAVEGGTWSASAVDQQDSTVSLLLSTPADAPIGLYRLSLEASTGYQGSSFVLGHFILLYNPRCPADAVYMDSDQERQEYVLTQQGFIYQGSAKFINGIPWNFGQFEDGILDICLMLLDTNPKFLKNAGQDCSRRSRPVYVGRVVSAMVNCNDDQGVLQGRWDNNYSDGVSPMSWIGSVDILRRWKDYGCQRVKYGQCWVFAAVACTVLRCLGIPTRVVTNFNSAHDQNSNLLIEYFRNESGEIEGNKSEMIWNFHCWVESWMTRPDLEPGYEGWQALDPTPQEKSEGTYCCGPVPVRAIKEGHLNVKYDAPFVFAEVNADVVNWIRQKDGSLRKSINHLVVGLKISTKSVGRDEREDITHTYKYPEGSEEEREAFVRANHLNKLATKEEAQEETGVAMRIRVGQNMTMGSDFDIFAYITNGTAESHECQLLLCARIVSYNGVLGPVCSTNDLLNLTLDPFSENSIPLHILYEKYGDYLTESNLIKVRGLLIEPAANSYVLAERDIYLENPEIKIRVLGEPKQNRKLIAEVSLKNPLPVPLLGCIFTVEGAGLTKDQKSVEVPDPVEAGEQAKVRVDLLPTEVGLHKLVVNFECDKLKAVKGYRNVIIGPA
Method: Incorporation of [1,4-14C] putrescine into succinylated casein was measured to determine the inhibitory effect of each compound on the activity of transglutaminase 2 (TGase 2). 1 mU of guinea pig liver-originated transglutaminase 2 (Sigma, St. Louis, MO, USA) was preincubated with various concentrations of GK13 or GK921 in a 0.1 mL reaction buffer with or without 10 mM CaCl2 for 10 minutes, and 0.4 mL of a substrate solution containing 2% (w/v) succinylated casein and 100 nCi of [1,4-14C] putrescine. After incubation at 37° C. for 1 hour, 4 mL of cold (4° C.) 7.5% (w/v) trichloroacetic acid (TCA) was added to terminate the reaction. The TCA-insoluble precipitate was recovered with a GF/A-grade glass filter (Millipore, Billerica, MA, USA), washed with cold 5% (w/v) TCA, dried, and assessed with a scintillation counter (Beckman Coulter, Brea, CA, USA) to evaluate radiolabel binding. Transglutaminase 2 which was pre-incubated only with a buffer was used as a positive control. The scintillation counts were compared between the example and the positive control, and IC50 values were determined through the logistic linear regression method. The presented data were the mean values of three independent experiments. In this experimental example and the following experimental example, Streptonigrin (described as KN383 in each figure of the drawing), which is an existing transglutaminase 2 inhibitor, was used as a positive control.

[4] = tested on: ACHN cancer cell population; test: Sulforhodamine B (SRB) assay; type: cell-based, Human
Method: Cells (10,000 cells/well, 100 μL) were incubated in a 96-well microtiter plate. After 24 hours of the incubation, drug (100 μL) was added to each of the wells, and the culture was further incubated at 37° C. for 48 hours. The cells were then fixed in TCA (50 μL per well). The plates were incubated at 4° C. for a minimum of 1 hour or a maximum of 3 hours. The liquid was removed from the plates, and then the plate was washed five times with water and then dried at room temperature (RT) for about 12-24 hours. The fixed cells were stained with 100 μL SRB for 5 minutes at room temperature. After the staining, the plate was washed three times with 1% (w/v) glacial acetic acid and dried at room temperature for about 12-24 hours. Next, the SRB was then dissolved in 10 mM Trizma base, and the absorbance was measured at 515 nm. The effect of the drug was expressed as GI50 (50% growth inhibition).
Specifically, each of the LDD3732, LDD3922, and LDD3959 in concentrations of 10^−9, 10^−8, 10^−7, 10^−6, and 10^−5 M were tested, and the percentage decrease in the control value of SRB was measured using an ACHN cancer cell population.

## O=C1C(Cl)=C(Cl)C(=O)c2[nH]c(-c3ccc(Br)c(F)c3)nc21 [LDD3959, 2-(4-bromo-3-fluorophenyl)-5,6-dichloro-1H-benzo[d]imidazole-4,7-dione]
[1]; 430 kinases treated with 1 μM
  number of kinases that specifically showed inhibition: 4
[1]; highest concentration 1 μM, ATP 10 μM
  inhibitory activity against the 4 kinases: very good inhibitory activity
[2]
  Akt/mTOR signals: inhibiting Akt/mTOR45 signals
  NFκB complexes: inhibiting NFκB complexes
[3]; 2 μM, negative control 248.5, control 3606.5, standard deviation 0.01
  mean value of the 2 μM LDD3959: 0.09
[3]; same dose (2 μM)
  TGase2 enzyme activity inhibitory effect compared with streptonigrin (KN383, positive control): two-fold or greater stronger TGase2 enzyme activity inhibitory effects than the control
[4]; Homo sapiens, 48 hours, read-out: GI50 (50% growth inhibition)
  GI50: 2500 nM
[4]; concentration of 10^−5 M, 48 hours
  SRB measurement (percentage decrease in the control value of SRB): −11.87
[4]; concentrations 10^−6 M or lower
  decrease in cell counts: no significant decrease in cell counts

Source: patent US20240300902A1, “NOVEL TRANSGLUTAMINASE 2 INHIBITOR AND USE THEREOF” (MD BIOLAB CO., LTD., priority 2021, published 2024)
